{"source": "paper PMC12229235", "about": "(Science signaling, 2024)", "target": "AKT3 (Homo sapiens, UniProt Q9Y243)", "sequence (Q9Y243 2-479)": "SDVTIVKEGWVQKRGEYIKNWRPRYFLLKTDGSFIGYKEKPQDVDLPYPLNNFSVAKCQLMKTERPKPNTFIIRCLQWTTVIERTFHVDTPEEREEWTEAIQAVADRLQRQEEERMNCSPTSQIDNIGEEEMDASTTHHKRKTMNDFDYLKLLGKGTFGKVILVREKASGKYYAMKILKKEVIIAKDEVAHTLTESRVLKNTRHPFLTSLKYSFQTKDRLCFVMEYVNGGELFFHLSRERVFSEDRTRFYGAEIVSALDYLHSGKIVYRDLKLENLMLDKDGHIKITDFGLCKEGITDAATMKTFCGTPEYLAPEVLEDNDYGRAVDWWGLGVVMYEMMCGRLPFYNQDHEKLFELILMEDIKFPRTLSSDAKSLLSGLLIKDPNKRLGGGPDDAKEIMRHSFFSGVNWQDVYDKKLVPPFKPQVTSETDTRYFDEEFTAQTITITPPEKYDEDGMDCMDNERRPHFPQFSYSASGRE", "sequence (O15530 whole entry partner)": "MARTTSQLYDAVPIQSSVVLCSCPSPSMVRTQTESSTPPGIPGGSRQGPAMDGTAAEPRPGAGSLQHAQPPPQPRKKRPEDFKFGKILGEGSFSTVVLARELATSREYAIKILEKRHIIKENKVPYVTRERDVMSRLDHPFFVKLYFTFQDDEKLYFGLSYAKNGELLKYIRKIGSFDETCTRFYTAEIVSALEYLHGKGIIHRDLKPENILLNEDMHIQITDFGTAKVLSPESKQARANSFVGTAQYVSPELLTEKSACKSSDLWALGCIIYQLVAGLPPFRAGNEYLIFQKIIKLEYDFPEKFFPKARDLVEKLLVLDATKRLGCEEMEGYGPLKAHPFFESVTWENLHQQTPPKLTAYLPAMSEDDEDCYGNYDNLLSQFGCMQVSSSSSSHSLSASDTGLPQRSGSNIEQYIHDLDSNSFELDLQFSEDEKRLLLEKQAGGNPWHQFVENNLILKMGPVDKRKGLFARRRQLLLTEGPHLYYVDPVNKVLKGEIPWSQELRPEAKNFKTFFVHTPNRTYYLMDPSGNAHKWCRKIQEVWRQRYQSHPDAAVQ", "test": "LANCE Ultra TR-FRET kinase assay with Ulight-crosstide substrate", "format": "biochemical", "note": "pIC50: −log10 of the molar value.", "data": [{"smiles": "CC(=O)N(C)[C@H]1CC[C@H](CC(=O)Nc2cc(-c3ccccc3)c(-c3ccc(C4(N)CCC4)cc3)cn2)CC1", "note": "[AKT3i, N-(5-(4-(1-aminocyclobutyl)phenyl)-4-phenylpyridin-2-yl)-2-((1r,4r)-4-(N-methylacetamido)cyclohexyl) acetamide]", "values": [{"measurement": "pIC50", "value": 7.89}]}]}
